Experimental data taken from PubChem BioAssay (NCI).
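Exposure lasted 48 hours, with cells grown in 96-well plates and compounds tested at five concentrations. GI50 marks 50% less growth. Definition used: TGI = concentration required for complete inhibition of growth.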

Columns and labels:
Assay in all cases: DTP human tumour cell line panel, 48 h
SW-620 colon = system: SW-620 colon
SNB-19 CNS = system: SNB-19 CNS
T-47D breast = system: T-47D breast
DU-145 prostate = system: DU-145 prostate
SK-MEL-2 melanoma = system: SK-MEL-2 melanoma
OVCAR-8 ovarian = system: OVCAR-8 ovarian
U251 CNS = system: U251 CNS
SN12C renal = system: SN12C renal
HCC-2998 colon = system: HCC-2998 colon
NCI-H23 lung = system: NCI-H23 lung
OVCAR-3 ovarian = system: OVCAR-3 ovarian
LOX IMVI melanoma = system: LOX IMVI melanoma
SF-539 CNS = system: SF-539 CNS
SK-MEL-28 melanoma = system: SK-MEL-28 melanoma
MDA-MB-435 = system: MDA-MB-435
SNB-75 CNS = system: SNB-75 CNS
HCT-116 colon = system: HCT-116 colon
COLO 205 colon = system: COLO 205 colon
UACC-62 melanoma = system: UACC-62 melanoma
PC-3 prostate = system: PC-3 prostate
A498 renal = system: A498 renal
OVCAR-4 ovarian = system: OVCAR-4 ovarian
IGROV1 ovarian = system: IGROV1 ovarian
NCI-H522 lung = system: NCI-H522 lung
MCF7 breast = system: MCF7 breast
OVCAR-5 ovarian = system: OVCAR-5 ovarian
MDA-MB-231 breast = system: MDA-MB-231 breast
HS 578T breast = system: HS 578T breast
UACC-257 melanoma = system: UACC-257 melanoma
NCI-H460 lung = system: NCI-H460 lung
SK-MEL-5 melanoma = system: SK-MEL-5 melanoma
BT-549 breast = system: BT-549 breast
RXF 393 renal = system: RXF 393 renal
UO-31 renal = system: UO-31 renal
HT29 colon = system: HT29 colon
RPMI-8226 leukemia = system: RPMI-8226 leukemia
SK-OV-3 ovarian = system: SK-OV-3 ovarian
HOP-62 NSCLC = system: HOP-62 NSCLC
M14 melanoma = system: M14 melanoma
EKVX NSCLC = system: EKVX NSCLC
HOP-92 NSCLC = system: HOP-92 NSCLC
NCI-H226 lung = system: NCI-H226 lung
NCI/ADR-RES ovarian = system: NCI/ADR-RES ovarian
A549 NSCLC = system: A549 NSCLC
SF-268 CNS = system: SF-268 CNS
786-0 renal = system: 786-0 renal
CCRF-CEM leukemia = system: CCRF-CEM leukemia
SF-295 CNS = system: SF-295 CNS
HCT-15 colon = system: HCT-15 colon
CAKI-1 renal = system: CAKI-1 renal

Work on `Nc1ncc2ccc3c(ccn3C3CC(O)C(CO)O3)c2n1` (stereo not given) yielded a GI50 (SW-620 colon) of over 100 µM, a TGI (SW-620 colon) of over 100 µM and a GI50 (SNB-19 CNS) of over 100 µM. For the same compound, the TGI (SNB-19 CNS) was over 100 µM, the GI50 (T-47D breast) was over 100 µM and the TGI (T-47D breast) was over 100 µM. For the same compound, the GI50 (DU-145 prostate) was over 100 µM, the TGI (DU-145 prostate) was over 100 µM and the GI50 (SK-MEL-2 melanoma) was over 100 µM. The TGI (SK-MEL-2 melanoma) was over 100 µM, the GI50 (OVCAR-8 ovarian) was over 100 µM and the TGI (OVCAR-8 ovarian) was over 100 µM. For the same compound, the GI50 (U251 CNS) was over 100 µM, the TGI (U251 CNS) was over 100 µM and the GI50 (SN12C renal) was over 100 µM. For the same compound, the TGI (SN12C renal) was over 100 µM, the GI50 (HCC-2998 colon) was over 100 µM and the TGI (HCC-2998 colon) was over 100 µM. It also gave a GI50 (NCI-H23 lung) of over 100 µM, a TGI (NCI-H23 lung) of over 100 µM and a GI50 (OVCAR-3 ovarian) of over 100 µM. For the same compound, the TGI (OVCAR-3 ovarian) was over 100 µM, the GI50 (LOX IMVI melanoma) was over 100 µM and the TGI (LOX IMVI melanoma) was over 100 µM. The GI50 (SF-539 CNS) was over 100 µM, the TGI (SF-539 CNS) was over 100 µM and the GI50 (SK-MEL-28 melanoma) was over 100 µM. The TGI (SK-MEL-28 melanoma) was over 100 µM, the GI50 (MDA-MB-435) was over 100 µM and the TGI (MDA-MB-435) was over 100 µM. The GI50 (SNB-75 CNS) was 42.4 µM, the TGI (SNB-75 CNS) was over 100 µM and the GI50 (HCT-116 colon) was over 100 µM. For the same compound, the TGI (HCT-116 colon) was over 100 µM, the GI50 (COLO 205 colon) was over 100 µM and the TGI (COLO 205 colon) was over 100 µM. For the same compound, the GI50 (UACC-62 melanoma) was over 100 µM, the TGI (UACC-62 melanoma) was over 100 µM and the GI50 (PC-3 prostate) was over 100 µM. For the same compound, the TGI (PC-3 prostate) was over 100 µM, the GI50 (A498 renal) was 18.3 µM and the TGI (A498 renal) was over 100 µM. The GI50 (OVCAR-4 ovarian) was over 100 µM, the TGI (OVCAR-4 ovarian) was over 100 µM and the GI50 (IGROV1 ovarian) was over 100 µM. For the same compound, the TGI (IGROV1 ovarian) was over 100 µM, the GI50 (NCI-H522 lung) was over 100 µM and the TGI (NCI-H522 lung) was over 100 µM. The GI50 (MCF7 breast) was 87.2 µM, the TGI (MCF7 breast) was over 100 µM and the GI50 (OVCAR-5 ovarian) was over 100 µM. For the same compound, the TGI (OVCAR-5 ovarian) was over 100 µM, the GI50 (MDA-MB-231 breast) was over 100 µM and the TGI (MDA-MB-231 breast) was over 100 µM. The GI50 (HS 578T breast) was over 100 µM, the TGI (HS 578T breast) was over 100 µM and the GI50 (UACC-257 melanoma) was over 100 µM. The TGI (UACC-257 melanoma) was over 100 µM, the GI50 (NCI-H460 lung) was over 100 µM and the TGI (NCI-H460 lung) was over 100 µM. The GI50 (SK-MEL-5 melanoma) was over 100 µM, the TGI (SK-MEL-5 melanoma) was over 100 µM and the GI50 (BT-549 breast) was over 100 µM. It also gave a TGI (BT-549 breast) of over 100 µM, a GI50 (RXF 393 renal) of over 100 µM and a TGI (RXF 393 renal) of over 100 µM. It also gave a GI50 (UO-31 renal) of over 100 µM, a TGI (UO-31 renal) of over 100 µM and a GI50 (HT29 colon) of over 100 µM. The TGI (HT29 colon) was over 100 µM, the GI50 (RPMI-8226 leukemia) was over 100 µM and the TGI (RPMI-8226 leukemia) was over 100 µM. It also gave a GI50 (SK-OV-3 ovarian) of over 100 µM, a TGI (SK-OV-3 ovarian) of over 100 µM and a GI50 (HOP-62 NSCLC) of over 100 µM. For the same compound, the TGI (HOP-62 NSCLC) was over 100 µM, the GI50 (M14 melanoma) was over 100 µM and the TGI (M14 melanoma) was over 100 µM. It also gave a GI50 (EKVX NSCLC) of over 100 µM, a TGI (EKVX NSCLC) of over 100 µM and a GI50 (HOP-92 NSCLC) of over 100 µM. The TGI (HOP-92 NSCLC) was over 100 µM, the GI50 (NCI-H226 lung) was over 100 µM and the TGI (NCI-H226 lung) was over 100 µM. It also gave a GI50 (NCI/ADR-RES ovarian) of over 100 µM, a TGI (NCI/ADR-RES ovarian) of over 100 µM and a GI50 (A549 NSCLC) of over 100 µM. For the same compound, the TGI (A549 NSCLC) was over 100 µM, the GI50 (SF-268 CNS) was over 100 µM and the TGI (SF-268 CNS) was over 100 µM. For the same compound, the GI50 (786-0 renal) was over 100 µM, the TGI (786-0 renal) was over 100 µM and the GI50 (CCRF-CEM leukemia) was over 100 µM. It also gave a TGI (CCRF-CEM leukemia) of over 100 µM, a GI50 (SF-295 CNS) of over 100 µM and a TGI (SF-295 CNS) of over 100 µM. The GI50 (HCT-15 colon) was over 100 µM, the TGI (HCT-15 colon) was over 100 µM and the GI50 (CAKI-1 renal) was over 100 µM. The TGI (CAKI-1 renal) was over 100 µM.
